Tests used:
[1] = system: FeCl3-induced thrombosis in mesenteric artery; test: FeCl3-induced mesenteric artery thrombosis in mice; format: in vivo; settings: 1.2 mg/kg i.v., 30% FeCl3, relative to DMSO group
Procedure: Mice were anesthetized with an oxygen–air mixture containing 3% isoflurane at a gas flow rate of 1.5–2 L/min. To label platelets, they were injected with the fluorescent dye rhodamine 6G (0.6 mg/kg). 10 min before FeCl3 treatment, mice were intravenously administered DMSO (1.1 g/kg, solvent control), compound 6 (1.2 mg/kg), or aspirin (20 mg/kg, positive control). The mesenteric arteries were surgically exposed and injured by applying a filter paper saturated with 30% FeCl3 for 5 min to induce thrombosis. Thrombus formation was then continuously monitored using a fluorescence microscope (Olympus, Tokyo, Japan).
FIGURE 4 Effects of compound 6 on collagen/epinephrine-induced pulmonary thrombosis and FeCl3-induced thrombosis in mesenteric artery. Mice were intravenously administered with DMSO (solvent control), compound 6 (1.2 mg/kg), or aspirin (20 mg/kg, positive control) for 10 min (A) Mice were injected with collagen/epinephrine to induce pulmonary embolism, which was detected through staining with Evans blue (left panel). The survival rate was recorded for 24 h (right panel). Data are presented as means ± SEM (n = 6). **p < 0.01 compared with the sham group. #p < 0.05 compared with the DMSO (solvent control) group. (B) FeCl3-induced thrombosis in mesenteric artery as observed under real-time fluorescent microscopy. […] Scale bar = 100 µm. […]

[2] = system: thrombus formation in mesenteric venules; test: Fluorescein sodium-mediated thrombus formation in mesenteric microvessels of mice; format: in vivo; settings: n = 6, mean ± SEM (DMSO 117.7 ± 12.4 s)
Procedure: Male ICR mice (weighing 20–25 g and aged 5–6 weeks) were purchased from BioLasco (Taipei, Taiwan). The animal use protocol for this project was approved by the Affidavit of Approval of Animal Use Protocol–Taipei Medical University (LAC-2020–0074). All animal experiments were conducted in accordance with the Guide for the Care and Use of Laboratory Animals, Eighth Edition (2011).
The mice were anesthetized with an oxygen–air mixture containing 3% isoflurane at a gas flow rate of 1.5–2 L/min. A bolus dose (bolus volume: 20 μL) of compound 6 (0.3 mg/kg, 0.6 mg/kg, or 1.2 mg/kg), DMSO (solvent control; 1.1 g/kg), or aspirin (20 mg/kg; positive control) was intravenously administered through the tail vein before the administering sodium fluorescein (15 mg/kg). The small intestinal segments were placed on a transparent culture dish, and the mesenteric vessels were observed under a microscope. Venules (20–30 μm) were selected and irradiated with light (wavelength <520 nm) to induce endothelial damage, causing thrombus formation and subsequent vessel occlusion. The time required to occlude a microvessel was recorded ([Lin et al., 2013]). A formula for dose translation based on the […] was used to calculate the appropriate dose for use in the mice ([Reagan-Shaw et al., 2008]). [Reagan-Shaw et al. (2008)] reported that the animal dose should not be extrapolated to a human equivalent dose (HED) by a simple conversion based on body weight. […] The formula for dose translation based on BSA is as follows: HED (mg/kg) = Animal dose (mg/kg) multiply by Animal Km/Human Km. Mouse Km is 3 and Human Km is 37.
FIGURE 3 Effects of compound 6 on thrombosis and hemostasis in mice. Mice were treated with compound 6 (0.3, 0.6, or 1.2 mg/kg), DMSO (solvent control), or aspirin (20 mg/kg; positive control) via intravenous route for 10 min. (A) The microthrombus formation (arrows) in mesenteric venules. Scale bar = 30 μm. […] Each point on the plot indicates a mouse (n = 6). Data (A,B) are presented as means ± SEM (n = 6). *p < 0.05 and ***p < 0.001 compared with the DMSO group.

With `CCCCN1C(=O)c2cccc3c(NCCNC(=O)C45CC6CC(CC(C6)C4)C5)ccc(c23)C1=O` [compound 6] the “Platelet accumulation on the injured vessels (rhodamine 6G-labeled platelets)” value [1] was “delayed platelet accumulation”, the Occlusion time ([2]; 0.3 mg/kg i.v.) was 211.5 ± 15.8 s and the Occlusion time ([2]; 0.6 mg/kg i.v.) was 333.5 ± 45.6 s. The Occlusion time ([2]; 1.2 mg/kg i.v.) was 451.5 ± 27.4 s.
